According to PMC3856494, “Radiofluorination and biological evaluation of N-aryl-oxadiazolyl-propionamides as potential radioligands for PET imaging of cannabinoid CB2 receptors” (Organic and Medicinal Chemistry Letters, 2013):
Where two headings read alike, the source gives them in different places.

Legend:
[1] = target: human CB1R (Homo sapiens, UniProt P21554); test: In vitro CB receptor affinity assay, displacement of [3H]CP55,940, CHO cells transfected with human CB1R; assay type: binding; conditions: [3H]CP55,940 displacement, hCB1R CHO cells; read-out: Ki CB1R
Procedure: (§1) For binding experiments, Chinese hamster ovary (CHO) cell lines stably transfected with human CB1R human and CB2R were used according to the procedures previously described. […] The binding experiments were performed in triplicates, and data were given as mean values from independent experiments.

[2] = target: human CB2R (Homo sapiens, UniProt P34972); test: In vitro CB receptor affinity assay, displacement of [3H]CP55,940, CHO cells transfected with human CB2R; assay type: binding
Procedure: as §1

[3] = HPLC-based logD determination; assay type: physicochemical; conditions: RP-HPLC, reference compounds, n = 3 to 6
Procedure: The distribution coefficients of [^18F]1 and [^18F]2 were also calculated from RP-HPLC retention times in three different systems: (1) isocratic elution (60% MeCN/20 mM NH4OAc at a flow rate of 1 mL/min) and (2) gradient elution (starting from 10% MeCN/20 mM NH4OAc aq. for 10 min with a gradient to 90% MeCN/20 mM NH4OAc aq. over 30 min at a flow rate of 1 mL/min) on a Reprosil-Pur C18-AQ column (5 μm, 250 × 4.6 mm, Dr. Maisch HPLC GmbH, Ammerbruch-Entringen, Germany), and (3) isocratic elution (52.5% MeCN/20 mM NH4OAc at a flow rate of 1 mL/min) on a Prodigy 5 μm C8 (250 × 4 mm; Phenomenex Ltd, Aschaffenburg, Germany) using the reference compounds following the protocol according to the EU guideline 67/548/EWG [44].

Chain of human CB1R (P21554 whole entry): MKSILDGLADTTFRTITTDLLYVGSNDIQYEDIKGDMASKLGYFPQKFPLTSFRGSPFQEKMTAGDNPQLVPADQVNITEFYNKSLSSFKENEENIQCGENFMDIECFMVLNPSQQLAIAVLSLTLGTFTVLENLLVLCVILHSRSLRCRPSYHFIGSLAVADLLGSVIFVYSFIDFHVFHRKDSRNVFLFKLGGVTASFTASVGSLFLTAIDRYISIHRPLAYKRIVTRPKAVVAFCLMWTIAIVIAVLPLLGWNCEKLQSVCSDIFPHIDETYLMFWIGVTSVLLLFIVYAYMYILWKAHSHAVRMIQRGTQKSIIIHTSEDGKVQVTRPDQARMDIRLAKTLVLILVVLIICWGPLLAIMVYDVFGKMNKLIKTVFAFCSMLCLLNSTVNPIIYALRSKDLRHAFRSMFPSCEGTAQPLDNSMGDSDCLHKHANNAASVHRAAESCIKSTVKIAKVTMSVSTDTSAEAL
Chain of human CB2R (P34972 whole entry): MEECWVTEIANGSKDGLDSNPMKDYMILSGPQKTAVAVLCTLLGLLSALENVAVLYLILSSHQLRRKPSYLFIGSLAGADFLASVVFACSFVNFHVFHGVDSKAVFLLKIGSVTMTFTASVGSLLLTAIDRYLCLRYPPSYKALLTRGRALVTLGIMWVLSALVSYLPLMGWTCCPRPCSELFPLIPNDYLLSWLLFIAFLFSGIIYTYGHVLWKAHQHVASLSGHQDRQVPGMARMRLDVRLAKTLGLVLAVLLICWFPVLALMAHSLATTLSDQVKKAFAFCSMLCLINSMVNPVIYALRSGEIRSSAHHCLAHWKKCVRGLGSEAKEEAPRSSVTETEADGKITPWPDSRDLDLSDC

**Q.** For `CCn1c2ccccc2c2cc(NC(=O)CCc3nc(-c4ccc(F)cc4Br)no3)ccc21` [Compound 2, 3-[3-(2-Bromo-4-fluorophenyl)-1,2,4-oxadiazol-5-yl]-N-(9-ethyl-9H-carbazol-3-yl)propanamide], which Ki [1] is on record?
**A.** > 1000 nM

**Q.** What about the Ki [2] of the same compound?
**A.** 4.27 ± 3.03 nM

**Q.** And the chromatographic logD ([3]; gradient 10% to 90% MeCN/20 mM NH4OAc, read-out: logD Reposil-Pur C18-AQ Gradient)?
**A.** 4.35 ± 0.11

**Q.** And the chromatographic logD ([3]; isocratic 52.5% MeCN/20 mM NH4OAc, read-out: logD Prodigy 5 μ C8 Isocratic)?
**A.** 4.4 ± 0.35

**Q.** And the chromatographic logD ([3]; isocratic 60% MeCN/20 mM NH4OAc, read-out: logD Reposil-Pur C18-AQ Isocratic)?
**A.** 4.87 ± 0.36
